PubChem BioAssay AID1963978 (Molecular Pharmacology Branch, DTP, NCI, 2024)

Tested on: 616215-338-R-J1-PDC spheroids with HUVEC/MSC, viability
Experiment: Anticancer human tumor 616215-338-R-J1-PDC patient-derived colon adenocarcinoma cell line growth inhibition [PI3K]
Details: for IC50: curve of first compound; for viability, T/C: stronger effect = lower value
Method in brief: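 High-throughput combination screen: PI3K inhibitors crossed with targeted small molecules on complex spheroids of tumor cells, HUVEC and MSCs at 37 degrees C, 5% CO2. Top concentration was at or near clinical Cmax (otherwise 10 microM), with half-log decrements.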
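Further: spheroids exposed to agents for seven days before the viability read.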

SMILES: CC1(C)CCC(Nc2ncc(C(F)(F)F)c(-c3c[nH]c4c(P(C)(C)=O)c(C#N)ccc34)n2)CN1 (configuration not stated) + COc1c(OCCCN2CCOCC2)ccc2c3n(c(=NC(=O)c4cnc(N)nc4)nc12)CCN3
- IC50 (second compound 0.00316 µM): < 0.0316 µM
- IC50 (second compound 0.01 µM): < 0.0316 µM
- IC50 (second compound 0.0316 µM): < 0.0316 µM
- IC50 (second compound 0.1 µM): 0.188 µM
- IC50 (second compound 0.316 µM): < 0.0316 µM
- IC50 (second compound 1 µM): < 0.0316 µM
- viability, T/C (second compound 0.00316 µM, first compound 0.0316 µM): 47.5%
- viability, T/C (second compound 0.00316 µM, first compound 0.1 µM): 43.1%
- viability, T/C (second compound 0.00316 µM, first compound 0.316 µM): 31.6%
- viability, T/C (second compound 0.00316 µM, first compound 1 µM): 56.8%
- viability, T/C (second compound 0.00316 µM, first compound 3.16 µM): 48.9%
- viability, T/C (second compound 0.00316 µM, first compound 10 µM): 0.29%
- viability, T/C (second compound 0.01 µM, first compound 0.0316 µM): 40.2%
- viability, T/C (second compound 0.01 µM, first compound 0.1 µM): 29%
- viability, T/C (second compound 0.01 µM, first compound 0.316 µM): 38.7%
- viability, T/C (second compound 0.01 µM, first compound 1 µM): 72.4%
- viability, T/C (second compound 0.01 µM, first compound 3.16 µM): 44.5%
- viability, T/C (second compound 0.01 µM, first compound 10 µM): 0.67%
- viability, T/C (second compound 0.0316 µM, first compound 0.0316 µM): 34.5%
- viability, T/C (second compound 0.0316 µM, first compound 0.1 µM): 33.7%
- viability, T/C (second compound 0.0316 µM, first compound 0.316 µM): 41.5%
- viability, T/C (second compound 0.0316 µM, first compound 1 µM): 44.8%
- viability, T/C (second compound 0.0316 µM, first compound 3.16 µM): 37.4%
- viability, T/C (second compound 0.0316 µM, first compound 10 µM): 0.14%
- viability, T/C (second compound 0.1 µM, first compound 0.0316 µM): 63.7%
- viability, T/C (second compound 0.1 µM, first compound 0.1 µM): 43.8%
- viability, T/C (second compound 0.1 µM, first compound 0.316 µM): 47.6%
- viability, T/C (second compound 0.1 µM, first compound 1 µM): 41.6%
- viability, T/C (second compound 0.1 µM, first compound 3.16 µM): 21.4%
- viability, T/C (second compound 0.1 µM, first compound 10 µM): 0.09%
- viability, T/C (second compound 0.316 µM, first compound 0.0316 µM): 29.9%
- viability, T/C (second compound 0.316 µM, first compound 0.1 µM): 23.8%
- viability, T/C (second compound 0.316 µM, first compound 0.316 µM): 20.1%
- viability, T/C (second compound 0.316 µM, first compound 1 µM): 18.9%
- viability, T/C (second compound 0.316 µM, first compound 3.16 µM): 8.61%
- viability, T/C (second compound 0.316 µM, first compound 10 µM): 0.69%
- viability, T/C (second compound 1 µM, first compound 0.0316 µM): 20%
- viability, T/C (second compound 1 µM, first compound 0.1 µM): 19.6%
- viability, T/C (second compound 1 µM, first compound 0.316 µM): 14.9%
- viability, T/C (second compound 1 µM, first compound 1 µM): 16.1%
- viability, T/C (second compound 1 µM, first compound 3.16 µM): 8.67%
- viability, T/C (second compound 1 µM, first compound 10 µM): 0.24%
